The results in this text go back to patent US8173689B2 (Novartis AG, priority 2006, dated 2012).

Read-outs that look alike come from different tables or passages of the source.

The target of test [1] is T1, cytoplasmic domain of the human CSF-1R (Homo sapiens, UniProt P07333).
T1 construct: Recombinant protein corresponding to the cytoplasmic domain of the human CSF-1R; purchased Invitrogen Corporation, Carlsbad, Calif; PV3249
T1 sequence (P07333 539-972 limits assumed): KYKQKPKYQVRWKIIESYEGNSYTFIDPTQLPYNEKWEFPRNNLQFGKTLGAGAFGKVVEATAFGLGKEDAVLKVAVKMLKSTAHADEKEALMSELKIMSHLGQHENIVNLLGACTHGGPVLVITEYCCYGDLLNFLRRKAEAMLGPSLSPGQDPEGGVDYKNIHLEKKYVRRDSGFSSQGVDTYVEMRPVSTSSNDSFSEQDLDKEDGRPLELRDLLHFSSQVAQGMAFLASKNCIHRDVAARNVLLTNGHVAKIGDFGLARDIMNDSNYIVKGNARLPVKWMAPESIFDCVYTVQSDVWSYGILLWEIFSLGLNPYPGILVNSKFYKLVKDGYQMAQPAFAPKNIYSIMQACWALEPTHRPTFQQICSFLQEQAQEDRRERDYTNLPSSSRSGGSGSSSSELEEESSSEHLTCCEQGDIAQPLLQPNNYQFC
The experiment in a line: In vitro kinase assay for colony stimulating factor-1 receptor (AlphaScreen). It counts as biochemical. The conditions noted are these: tested at about 1 μM, read-out: CSF-1R percent inhibition. Put shortly: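 Test compounds, serially diluted threefold starting at 25 μM, were mixed with Hepes buffer (pH 7.5, Mg2+/Mn2+, DTT, BSA, Tween 80) containing 1 μM ATP. Recombinant kinase was present at 4 nM. After stopping, beads were added and plates were read the next day by AlphaScreen.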
In general terms: In Alpha technology, singlet oxygen from a donor bead excites a nearby acceptor bead.

The next test addresses T2, kinase domain of cKIT (Homo sapiens, UniProt P10721).
T2 construct: The kinase domain of cKIT was assayed in 50 mM Hepes; purchased Upstate 14-559
Kind of test: Inhibition of cKIT kinase signaling in an in vitro biochemical assay (alphascreen). The note with it: tested at about 1 μM, read-out: cKit percent inhibition.

The target in another test is T3, kinase domain of PDGFRβ (Homo sapiens, UniProt P09619).
T3 construct: The kinase domain of PDGFRβ was assayed in 50 mM Hepes; purchased Invitrogen P3082
The experiment in a line: Inhibition of PDGFRb kinase signaling in an in vitro biochemical assay (alphascreen). The note with it: tested at about 1 μM, read-out: PDGFRβ percent inhibition.

The test system of test [2] is MNFS60 (murine AML cells). The experiment in a line: Cell viability assay in MCSF dependent MNFS60 cells (Cell Titer Glo). The test is classed as cell-based. The note with it: Mus musculus, tested at about 1 μM, read-out: M-NFS-60 CP percent inhibition. Put shortly: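 3-fold DMSO dilution series (500× stocks); MCSF 10 ng/ml final; 72 hrs, 37° C., 5% CO2; CellTiter-Glo read-out; n=3; EC50 fitted.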
For orientation: Cellular ATP, detected with luciferase, serves as a proxy for viable cell number.

T3 sequence (P09619 600-962 limits assumed): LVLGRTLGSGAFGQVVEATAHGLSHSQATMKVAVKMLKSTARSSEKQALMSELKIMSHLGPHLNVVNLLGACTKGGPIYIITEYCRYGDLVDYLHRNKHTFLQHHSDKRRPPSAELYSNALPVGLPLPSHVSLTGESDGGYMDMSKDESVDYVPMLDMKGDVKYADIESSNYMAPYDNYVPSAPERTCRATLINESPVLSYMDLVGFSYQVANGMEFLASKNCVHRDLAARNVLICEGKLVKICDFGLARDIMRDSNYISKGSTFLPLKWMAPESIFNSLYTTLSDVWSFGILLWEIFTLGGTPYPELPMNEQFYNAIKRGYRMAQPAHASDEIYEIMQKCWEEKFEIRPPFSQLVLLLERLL
T2 sequence (P10721 589-937 limits assumed): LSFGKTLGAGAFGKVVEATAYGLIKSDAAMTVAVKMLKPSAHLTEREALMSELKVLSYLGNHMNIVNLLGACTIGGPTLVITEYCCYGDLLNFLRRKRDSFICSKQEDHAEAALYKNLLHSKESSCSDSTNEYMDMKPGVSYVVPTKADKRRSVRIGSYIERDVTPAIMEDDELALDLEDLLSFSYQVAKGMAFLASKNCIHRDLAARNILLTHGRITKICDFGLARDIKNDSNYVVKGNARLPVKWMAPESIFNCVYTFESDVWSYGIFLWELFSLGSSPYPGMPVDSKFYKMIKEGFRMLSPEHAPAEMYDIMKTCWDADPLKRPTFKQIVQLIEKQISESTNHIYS

On to `CNC(=O)c1cc(Oc2ccc3nc(NCCC4CC4)sc3c2)ccn1` [Example 290, 4-(2-(2-cyclopropylethylamino)benzo[d]thiazol-6-yloxy)-N-methylpicolinamide], for which the inhibition at 1 µM in test [1] (compounds of Table 3) turned out to be 100%; on kinase domain of cKIT (compounds of Table 3) it was 10%; on kinase domain of PDGFRβ (compounds of Table 3) it was 15%; in test [2] (compounds of Table 3), 2%.

`CNC(=O)c1cc(Oc2ccc3nc(N[C@@H]4CCCC[C@H]4NC(C)=O)sc3c2)ccn1` [Example 298, 4-(2-((1R,2R)-2-acetamidocyclohexylamino)benzo[d]thiazol-6-yloxy)-N-methylpicolinamide]: the inhibition at 1 µM in test [1] (compounds of Table 3) worked out at 98%; at kinase domain of cKIT (compounds of Table 3) it was 13%; at kinase domain of PDGFRβ (compounds of Table 3), 0%; in test [2] (compounds of Table 3) it was 41%.

On to `CNC(=O)c1cc(Oc2ccc3nc(N[C@H]4CCCC[C@H]4NS(C)(=O)=O)sc3c2)ccn1` [Example 300, N-methyl-4-(2-((1S,2R)-2-(methylsulfonylamido)cyclo-hexylamino)benzo[d]thiazol-6-yloxy)picolinamide], for which the inhibition at 1 µM is 99% in test [1], 2% on kinase domain of cKIT, 0% on kinase domain of PDGFRβ and 14% in test [2] (MCSF dependent MNFS60 cells).

In the case of `CNC(=O)c1cc(Oc2ccc3nc(N[C@H]4CCCN(C(C)=O)C4)sc3c2)ccn1` [Example 304, (S)-4-(2-(1-acetylpiperidin-3-ylamino)benzo[d]thiazol-6-yloxy)-N-methylpicolinamide], the inhibition at 1 µM was determined as 100% in test [1], 9% at kinase domain of cKIT, 18% on kinase domain of PDGFRβ and 23% in test [2] (MCSF dependent MNFS60 cells).

In the case of `CNC(=O)c1cc(Oc2ccc3nc(NCC4CCCN(C(C)=O)C4)sc3c2)ccn1` (centres unmarked) [Example 306, 4-(2-((1-acetylpiperidin-3-yl)methylamino)benzo[d]thiazol-6-yloxy)-N-methylpicolinamide], the inhibition at 1 µM worked out at 99% in test [1], 6% on kinase domain of cKIT, 0% on kinase domain of PDGFRβ and 48% in test [2] (MCSF dependent MNFS60 cells).

Turning to `CNC(=O)c1cc(Oc2ccc3nc(NCCc4ccccn4)sc3c2)ccn1` [Example 314, N-methyl-4-(2-(2-(pyridin-2-yl)ethylamino)benzo[d]thiazol-6-yloxy)picolinamide], the inhibition at 1 µM in test [1] worked out at 99%; on kinase domain of cKIT it was 13%; on kinase domain of PDGFRβ, 12%; in test [2] (MCSF dependent MNFS60 cells) it was 20%.

Turning to `CNC(=O)c1cc(Oc2ccc3nc(NCCc4cccnc4)sc3c2)ccn1` [Example 315, N-methyl-4-(2-(2-(pyridin-3-yl)ethylamino)benzo[d]thiazol-6-yloxy)picolinamide], the inhibition at 1 µM in test [1] amounted to 98%; on kinase domain of cKIT, 17%; at kinase domain of PDGFRβ, 0%; in test [2] (MCSF dependent MNFS60 cells) it was 27%.

Consider `CNC(=O)c1cc(Oc2ccc3nc(N[C@H]4CCC[C@@H]4O)sc3c2)ccn1` [Example 320, 4-(2-((1S,2S)-2-hydroxycyclopentylamino)benzo[d]thiazol-6-yloxy)-N-methylpicolinamide], for which the inhibition at 1 µM in test [1] came to 100%; on kinase domain of cKIT, 16%; at kinase domain of PDGFRβ, 20%; in test [2] (MCSF dependent MNFS60 cells) it was 25%.

Take `CNC(=O)c1cc(Oc2ccc3nc(N[C@H]4CCC[C@H]4O)sc3c2)ccn1` [Example 322, 4-(2-((1S,2R)-2-hydroxycyclopentylamino)benzo[d]thiazol-6-yloxy)-N-methylpicolinamide]: the inhibition at 1 µM in test [1] is 99%; on kinase domain of cKIT, 18%; on kinase domain of PDGFRβ, 11%; in test [2] (MCSF dependent MNFS60 cells) it was 21%.

Consider `CNC(=O)c1cc(Oc2ccc3nc(N[C@@H]4CCC[C@H]4O)sc3c2)ccn1` [Example 324, 4-(2-((1R,2R)-2-hydroxycyclopentylamino)benzo[d]thiazol-6-yloxy)-N-methylpicolinamide], for which the inhibition at 1 µM in test [1] is 99%; at kinase domain of cKIT, 21%; on kinase domain of PDGFRβ it was 19%; in test [2] (MCSF dependent MNFS60 cells), 15%.

Regarding `CNC(=O)c1cc(Oc2ccc3nc(N[C@H]4[C@H]5CC[C@H](C5)[C@H]4CO)sc3c2)ccn1` [Example 325, 4-(2-((1S,3R,4R)-3-(hydroxymethyl)bicyclo[2.2.1]heptan-2-ylamino)benzo[d]thiazol-6-yloxy)-N-methylpicolinamide], the inhibition at 1 µM in test [1] was determined as 100%; on kinase domain of cKIT it was 27%; on kinase domain of PDGFRβ, 43%; in test [2] (MCSF dependent MNFS60 cells) it was 66%.

Regarding `CNC(=O)c1cc(Oc2ccc3nc(N[C@H]4CCCN(C(=O)c5ccccc5)C4)sc3c2)ccn1` [Example 336, (S)-4-(2-(1-benzoylpiperidin-3-ylamino)benzo[d]thiazol-6-yloxy)-N-methylpicolinamide], the inhibition at 1 µM was found to be 94% in test [1], 23% on kinase domain of cKIT, 14% on kinase domain of PDGFRβ and 17% in test [2] (MCSF dependent MNFS60 cells).

Regarding `CNC(=O)c1cc(Oc2ccc3nc(NCC4CCCN(C(=O)NC(C)C)C4)sc3c2)ccn1` (centres unmarked) [Example 337, 4-(2-((1-(isopropylcarbamoyl)piper-idin-3-yl)methylamino)benzo[d]thiazol-6-yloxy)-N-methylpicolinamide], the inhibition at 1 µM in test [1] came out at 95%; at kinase domain of cKIT, 14%; on kinase domain of PDGFRβ, 0%; in test [2] (MCSF dependent MNFS60 cells) it was 19%.

`CNc1cc(Oc2ccc3nc(NCC4CCCCC4)sc3c2)ccn1` [Example 338, N-(cyclohexylmethyl)-6-(2-(methylamino)pyridin-4-yloxy)benzo[d]thiazol-2-amine]: the inhibition at 1 µM in test [1] was determined as 100%; at kinase domain of cKIT, 51%; at kinase domain of PDGFRβ it was 52%; in test [2] (MCSF dependent MNFS60 cells), 44%.

Regarding `COCCNc1cc(Oc2ccc3nc(NCC4CCCCC4)sc3c2)ccn1` [Example 343, N-(cyclohexylmethyl)-6-(2-(2-methoxyethylamino)pyridin-4-yloxy)benzo[d]thiazol-2-amine], the inhibition at 1 µM in test [1] was determined as 100%; on kinase domain of cKIT, 59%; on kinase domain of PDGFRβ, 28%; in test [2] (MCSF dependent MNFS60 cells), 57%.

Consider `CC[C@H](C)[C@@H](CO)Nc1nc2ccc(Oc3ccnc(-c4cnn(C)c4)c3)cc2s1` [Example 349, (2S,3S)-3-methyl-2-(6-(2-(1-methyl-1H-pyrazol-4-yl)pyridin-4-yloxy)benzo[d]thiazol-2-ylamino)pentan-1-ol], for which the inhibition at 1 µM was 100% in test [1], 77% on kinase domain of cKIT, 73% on kinase domain of PDGFRβ and 100% in test [2] (MCSF dependent MNFS60 cells).

For the molecule `Cn1cc(-c2cc(Oc3ccc4nc(N[C@H]5c6ccccc6C[C@H]5O)sc4c3)ccn2)cn1` [Example 350, (1S,2R)-1-(6-(2-(1-methyl-1H-pyrazol-4-yl)pyridin-4-yloxy)benzo[d]thiazol-2-ylamino)-2,3-dihydro-1H-inden-2-ol], the inhibition at 1 µM turned out to be 100% in test [1], 100% on kinase domain of cKIT, 91% on kinase domain of PDGFRβ and 100% in test [2] (MCSF dependent MNFS60 cells).

As to `Cn1cc(-c2cc(Oc3ccc4nc(N[C@H](CO)Cc5ccccc5)sc4c3)ccn2)cn1` [Example 351, (S)-2-(6-(2-(1-methyl-1H-pyrazol-4-yl)pyridin-4-yloxy)benzo[d]thiazol-2-ylamino)-3-phenylpropan-1-ol], the inhibition at 1 µM was 100% in test [1], 98% at kinase domain of cKIT, 79% at kinase domain of PDGFRβ and 100% in test [2] (MCSF dependent MNFS60 cells).

For `Cn1cc(-c2cc(Oc3ccc4nc(N[C@H](CO)C5CCCCC5)sc4c3)ccn2)cn1` [Example 353, (S)-2-cyclohexyl-2-(6-(2-(1-methyl-1H-pyrazol-4-yl)pyridin-4-yloxy)benzo[d]thiazol-2-ylamino)ethanol], the inhibition at 1 µM (in test [1]; at kinase domain of cKIT; at kinase domain of PDGFRβ; in test [2] (MCSF dependent MNFS60 cells)) was 100% throughout.

With `C[C@@H](Nc1nc2ccc(Oc3ccnc(-c4cnn(C)c4)c3)cc2s1)C1CCCCC1` [Example 354, (R)-N-(1-cyclohexylethyl)-6-(2-(1-methyl-1H-pyrazol-4-yl)pyridin-4-yloxy)benzo[d]thiazol-2-amine], the inhibition at 1 µM in test [1] came out at 100%; on kinase domain of cKIT, 100%; on kinase domain of PDGFRβ, 98%; in test [2] (MCSF dependent MNFS60 cells), 100%.

In general, inhibition refers to how much of the control response was suppressed.
